According to EP1928842B1, “4-PHENYL-6-SUBSTITUTED-PYRIMIDINE-2-CARBONITRILE DERIVATIVES” (priority 2005, dated 2007):

Biological target: T1, recombinant human Cathepsin K (Homo sapiens, UniProt P43235)
T1 sequence (P43235 115-329): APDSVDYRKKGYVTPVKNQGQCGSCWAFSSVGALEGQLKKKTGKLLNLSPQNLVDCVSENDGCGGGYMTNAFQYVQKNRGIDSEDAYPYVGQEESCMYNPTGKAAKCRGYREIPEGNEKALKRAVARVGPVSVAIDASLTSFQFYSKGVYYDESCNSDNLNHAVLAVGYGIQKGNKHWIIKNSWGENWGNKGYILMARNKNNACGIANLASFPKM
Experiment: Cathepsin K activity: inhibition of recombinant human Cathepsin K (fluorogenic substrate Z-Phe-Arg-AMC)
Type: biochemical
Conditions: sodium acetate pH5.5, fluorescence at 10 minutes, read-out: pIC50 (negative logarithm of the IC50 concentration) for inhibition of human cathepsin K (converted)
Experimental: 10µl of a 1mg/l solution of activated recombinant human cathepsin K, in assay buffer, is then added to the well, yielding a final inhibitor concentration of 10µM. • Enzyme activity is determined by measuring the fluorescence of the liberated aminomethylcoumarin at […] using 390nm excitation, at 10 minutes. Percentage enzyme activity is calculated by comparison of this activity to that of a solution containing no inhibitor. Compounds are subsequently subjected to a dose response curve analysis in order to determine IC50 values for active compounds (where IC50 is the concentration of test compound causing 50 % inhibition of the enzymatic activity). Compounds of the invention typically have a pIC50 (negative logarithm of the IC50 concentration) for inhibition of human cathepsin K of more than 6, preferably more than 7 and most preferably a pIC50 of more than 8, such as for the compounds of Examples 1, 2a, 2b, 3, 5, 6, 8, 12, 14, 13, 16k, 16n, 16o, 17, 22a, 22b, 22c

**Q.** `CC(C)N1CCN(c2cc(-c3cccc(C(F)(F)F)c3)nc(C#N)n2)CC1` [Example 3, 4-(4-Isopropyl-piperazin-1-yl)-6-(trifluoromethyl-phenyl)-pyrimidine-2-carbonitrile] was tested. Which IC50 did it give?
**A.** < 10 nM
